Measurements taken from patent publication US8389523B2, “Substituted quinoxaline and an agrochemical composition thereof” (Kumiai Chemical Industry Co., Ltd., priority 2007, dated 2013).

Legend:
Type in all cases: in vivo
Set-up in all cases: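 grade 0 to 5 of growth suppression where 5 is 90% or more and 0 below 10%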
[1] = tested on: Abutilon theophrasti medicus; test: Herbicidal effects in upland field soil treatment (Test Example 2); conditions: 1000 g active ingredient per hectare, 21st day after treatment, criteria of Table 138
In short: (§1)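 Pre-emergence soil application: seeds sown in upland field soil, covered, then wettable powder diluted in water sprayed on the soil surface at 1000 g active ingredient/ha in 1000 L/ha. Plants grown in greenhouse; herbicidal effect scored on a rating scale 21 days after treatment.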

Amaranthus viridis L. [2] = test: as above; conditions: 1000 g active ingredient per hectare, 21st day after treatment, criteria of Table 138
In short: as §1

[3] = tested on: Abutilon theophrasti medicus; test: Herbicidal effects in upland field foliar treatment (Test Example 3); conditions: criteria of Table 138; for herbicidal effect (index) on Abutilon theophrasti medicus: 1000 g active ingredient per hectare, 14th day after treatment; for herbicidal effects on Abutilon theophrasti medicus: 1000 g of the active ingredient per hectare, 14th day after the treatment, wettable powder
Description: (§2) Test Example 3 Test on Herbicidal Effects in Upland Field Foliar Treatment A 80-cm^2 plastic pot was filled with upland field soil. Seeds of Echinochloa crus-galli (L.) P. Beauv. var. crus-galli, Abutilon theophrasti medicus and Amaranthus viridis L. were sowed, and the plants were grown for two weeks in a greenhouse. A wettable powder formulation prepared according to Preparation Example 1 was diluted with water, and was sprayed with a small sprayer to perform foliar application over the entirety of plants from the upper side, in an amount equivalent to 1000 liters per hectare, such that 1000 g of the active ingredient per hectare was applied. Thereafter, the plants were grown in a greenhouse, and on the 14th day after the treatment, the herbicidal effects were investigated according to the criteria described in the Table 138 shown above.

Amaranthus viridis L. [4] = test: as above; conditions: criteria of Table 138; for herbicidal effect (index) on Amaranthus viridis L.: 1000 g active ingredient per hectare, 14th day after treatment; for herbicidal effects on Amaranthus viridis L.: 1000 g of the active ingredient per hectare, 14th day after the treatment, wettable powder
Description: as §2

[5] = tested on: Echinochloa crus-galli (L.) P. Beauv. var. crus-galli; test: as above; conditions: criteria of Table 138; for herbicidal effect (index) on Echinochloa crus-galli (L.) P. Beauv. var. crus-galli: 1000 g active ingredient per hectare, 14th day after treatment; for herbicidal effects on Echinochloa crus-galli (L.) P. Beauv. var. crus-galli: 1000 g of the active ingredient per hectare, 14th day after the treatment, wettable powder
Description: as §2

[6] = tested on: Echinochloa oryzicola Vasing; test: Herbicidal effects in paddy field soil treatment (Test Example 1); conditions: paddy field soil treatment; 1000 g of the active ingredient per hectare; wettable powder added dropwise on water surface; 21st day after treatment
In short: (§3)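 Weed seeds were sown into puddled, leveled paddy soil in pots and flooded to 3 cm water depth. One day later the diluted wettable powder formulation was dropped onto the water surface at 1000 g active ingredient per hectare. Herbicidal effect was scored on day 21 after greenhouse growth.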

[7] = tested on: Monochoria vaginalis (Burm. f.) Presl var. plantaginea (Roxb.) Solms-Laub.; test: as above; conditions: paddy field soil treatment; 1000 g of the active ingredient per hectare; wettable powder added dropwise on water surface; 21st day after treatment
In short: as §3

[8] = tested on: Scirpus juncoides Roxb. var. ohwianus. T. Koyama; test: as above; conditions: paddy field soil treatment; 1000 g of the active ingredient per hectare; wettable powder added dropwise on water surface; 21st day after treatment
In short: as §3

Compound: Cn1c(=O)c(C(=O)C2=C(O)C3CCC(C3)C2=O)nc2ccccc21 (centres unmarked) [I-5]
- herbicidal effect (index) on Abutilon theophrasti medicus [1]: 5
- herbicidal effect (index) on Amaranthus viridis L. (Amaranthus viridis L. [2]): 5
- herbicidal effect (index) on Abutilon theophrasti medicus [3]: 5
- herbicidal effect (index) on Amaranthus viridis L. (Amaranthus viridis L. [4]): 5
- herbicidal effect (index) on Echinochloa crus-galli (L.) P. Beauv. var. crus-galli [5]: 4

Compound: O=C1CCCC(O)=C1C(=O)c1nc2ccccc2n(C2CCCC2)c1=O [I-21]
- herbicidal effect (index) on Abutilon theophrasti medicus [1]: 5
- herbicidal effect (index) on Amaranthus viridis L. (Amaranthus viridis L. [2]): 5
- herbicidal effect (index) on Abutilon theophrasti medicus [3]: 5
- herbicidal effect (index) on Amaranthus viridis L. (Amaranthus viridis L. [4]): 5
- herbicidal effect (index) on Echinochloa crus-galli (L.) P. Beauv. var. crus-galli [5]: 5

Compound: CSCn1c(=O)c(C(=O)C2=C(O)C3CCC(C3)C2=O)nc2ccccc21 (centres unmarked) [I-71]
- herbicidal effect (index) on Abutilon theophrasti medicus [1]: 5
- herbicidal effect (index) on Amaranthus viridis L. (Amaranthus viridis L. [2]): 5
- herbicidal effect (index) on Abutilon theophrasti medicus [3]: 5
- herbicidal effect (index) on Amaranthus viridis L. (Amaranthus viridis L. [4]): 5
- herbicidal effect (index) on Echinochloa crus-galli (L.) P. Beauv. var. crus-galli [5]: 5

Compound: O=C1CCCC(O)=C1C(=O)c1nc2ccccc2n(-c2ncccn2)c1=O [I-195]
- herbicidal effect (index) on Abutilon theophrasti medicus [1]: 5
- herbicidal effect (index) on Amaranthus viridis L. (Amaranthus viridis L. [2]): 5
- herbicidal effect (index) on Abutilon theophrasti medicus [3]: 5
- herbicidal effect (index) on Amaranthus viridis L. (Amaranthus viridis L. [4]): 5
- herbicidal effect (index) on Echinochloa crus-galli (L.) P. Beauv. var. crus-galli [5]: 5

Compound: O=C1CCCC(O)=C1C(=O)c1nc2ccccc2n(-c2ccc(O)cc2)c1=O [II-51]
- Herbicidal effects index, Echinochloa oryzicola Vasing [6]: 5
- Herbicidal effects index, Monochoria vaginalis (Burm. f.) Presl var. plantaginea (Roxb.) Solms-Laub. [7]: 5
- Herbicidal effects index, Scirpus juncoides Roxb. var. ohwianus. T. Koyama [8]: 5
- herbicidal effects on Abutilon theophrasti medicus [3]: 5
- herbicidal effects on Amaranthus viridis L. (Amaranthus viridis L. [4]): 5
- herbicidal effects on Echinochloa crus-galli (L.) P. Beauv. var. crus-galli [5]: 4

Compound: CCCOc1cccc(-n2c(=O)c(C(=O)C3=C(O)CCCC3=O)nc3ccccc32)c1 [II-71]
- Herbicidal effects index, Echinochloa oryzicola Vasing [6]: 4
- Herbicidal effects index, Monochoria vaginalis (Burm. f.) Presl var. plantaginea (Roxb.) Solms-Laub. [7]: 5
- Herbicidal effects index, Scirpus juncoides Roxb. var. ohwianus. T. Koyama [8]: 5
- herbicidal effects on Abutilon theophrasti medicus [3]: 5
- herbicidal effects on Amaranthus viridis L. (Amaranthus viridis L. [4]): 5
- herbicidal effects on Echinochloa crus-galli (L.) P. Beauv. var. crus-galli [5]: 4

Compound: CC(C)Oc1cccc(-n2c(=O)c(C(=O)C3=C(O)CCCC3=O)nc3ccccc32)c1 [II-74]
- Herbicidal effects index, Echinochloa oryzicola Vasing [6]: 5
- Herbicidal effects index, Monochoria vaginalis (Burm. f.) Presl var. plantaginea (Roxb.) Solms-Laub. [7]: 5
- Herbicidal effects index, Scirpus juncoides Roxb. var. ohwianus. T. Koyama [8]: 5
- herbicidal effects on Abutilon theophrasti medicus [3]: 4
- herbicidal effects on Amaranthus viridis L. (Amaranthus viridis L. [4]): 4
- herbicidal effects on Echinochloa crus-galli (L.) P. Beauv. var. crus-galli [5]: 3

Compound: C#CCOc1ccc(-n2c(=O)c(C(=O)C3=C(O)CCCC3=O)nc3ccccc32)cc1 [II-84]
- Herbicidal effects index, Echinochloa oryzicola Vasing [6]: 5
- Herbicidal effects index, Monochoria vaginalis (Burm. f.) Presl var. plantaginea (Roxb.) Solms-Laub. [7]: 5
- Herbicidal effects index, Scirpus juncoides Roxb. var. ohwianus. T. Koyama [8]: 5
- herbicidal effects on Abutilon theophrasti medicus [3]: 4
- herbicidal effects on Amaranthus viridis L. (Amaranthus viridis L. [4]): 5
- herbicidal effects on Echinochloa crus-galli (L.) P. Beauv. var. crus-galli [5]: 4

Compound: O=C1CCCC(O)=C1C(=O)c1nc2ccccc2n(-c2ccc(OCC3CCCO3)cc2)c1=O (centres unmarked) [II-116]
- Herbicidal effects index, Echinochloa oryzicola Vasing [6]: 5
- Herbicidal effects index, Monochoria vaginalis (Burm. f.) Presl var. plantaginea (Roxb.) Solms-Laub. [7]: 5
- Herbicidal effects index, Scirpus juncoides Roxb. var. ohwianus. T. Koyama [8]: 5
- herbicidal effects on Abutilon theophrasti medicus [3]: 4
- herbicidal effects on Amaranthus viridis L. (Amaranthus viridis L. [4]): 5
- herbicidal effects on Echinochloa crus-galli (L.) P. Beauv. var. crus-galli [5]: 4

Compound: CSc1cccc(-n2c(=O)c(C(=O)C3=C(O)CCCC3=O)nc3ccccc32)c1 [II-121]
- Herbicidal effects index, Echinochloa oryzicola Vasing [6]: 4
- Herbicidal effects index, Monochoria vaginalis (Burm. f.) Presl var. plantaginea (Roxb.) Solms-Laub. [7]: 5
- Herbicidal effects index, Scirpus juncoides Roxb. var. ohwianus. T. Koyama [8]: 5
- herbicidal effects on Abutilon theophrasti medicus [3]: 4
- herbicidal effects on Amaranthus viridis L. (Amaranthus viridis L. [4]): 4
- herbicidal effects on Echinochloa crus-galli (L.) P. Beauv. var. crus-galli [5]: 4

Compound: CS(=O)(=O)c1cccc(-n2c(=O)c(C(=O)C3=C(O)CCCC3=O)nc3ccccc32)c1 [II-124]
- Herbicidal effects index, Echinochloa oryzicola Vasing [6]: 4
- Herbicidal effects index, Monochoria vaginalis (Burm. f.) Presl var. plantaginea (Roxb.) Solms-Laub. [7]: 5
- Herbicidal effects index, Scirpus juncoides Roxb. var. ohwianus. T. Koyama [8]: 5
- herbicidal effects on Abutilon theophrasti medicus [3]: 4
- herbicidal effects on Amaranthus viridis L. (Amaranthus viridis L. [4]): 5
- herbicidal effects on Echinochloa crus-galli (L.) P. Beauv. var. crus-galli [5]: 5

Compound: COc1ccc(-n2c(=O)c(C(=O)C3=C(O)CCCC3=O)nc3ccccc32)cc1F [II-178]
- Herbicidal effects index, Echinochloa oryzicola Vasing [6]: 4
- Herbicidal effects index, Monochoria vaginalis (Burm. f.) Presl var. plantaginea (Roxb.) Solms-Laub. [7]: 5
- Herbicidal effects index, Scirpus juncoides Roxb. var. ohwianus. T. Koyama [8]: 5
- herbicidal effects on Abutilon theophrasti medicus [3]: 5
- herbicidal effects on Amaranthus viridis L. (Amaranthus viridis L. [4]): 5
- herbicidal effects on Echinochloa crus-galli (L.) P. Beauv. var. crus-galli [5]: 5

Compound: COc1ccc(-n2c(=O)c(C(=O)C3=C(O)CCCC3=O)nc3cccc(Cl)c32)cc1 [II-197]
- Herbicidal effects index, Echinochloa oryzicola Vasing [6]: 5
- Herbicidal effects index, Monochoria vaginalis (Burm. f.) Presl var. plantaginea (Roxb.) Solms-Laub. [7]: 5
- Herbicidal effects index, Scirpus juncoides Roxb. var. ohwianus. T. Koyama [8]: 5
- herbicidal effects on Abutilon theophrasti medicus [3]: 4
- herbicidal effects on Amaranthus viridis L. (Amaranthus viridis L. [4]): 5
- herbicidal effects on Echinochloa crus-galli (L.) P. Beauv. var. crus-galli [5]: 5

Compound: CN(C)c1ccc(-n2c(=O)c(C(=O)C3=C(O)CCCC3=O)nc3ccccc32)cc1 [II-210]
- Herbicidal effects index, Echinochloa oryzicola Vasing [6]: 5
- Herbicidal effects index, Monochoria vaginalis (Burm. f.) Presl var. plantaginea (Roxb.) Solms-Laub. [7]: 5
- Herbicidal effects index, Scirpus juncoides Roxb. var. ohwianus. T. Koyama [8]: 5
- herbicidal effects on Abutilon theophrasti medicus [3]: 5
- herbicidal effects on Amaranthus viridis L. (Amaranthus viridis L. [4]): 5
- herbicidal effects on Echinochloa crus-galli (L.) P. Beauv. var. crus-galli [5]: 4

Compound: Cc1cc(-n2c(=O)c(C(=O)C3=C(O)CCCC3=O)nc3ccccc32)ccc1F [II-214]
- Herbicidal effects index, Echinochloa oryzicola Vasing [6]: 5
- Herbicidal effects index, Monochoria vaginalis (Burm. f.) Presl var. plantaginea (Roxb.) Solms-Laub. [7]: 5
- Herbicidal effects index, Scirpus juncoides Roxb. var. ohwianus. T. Koyama [8]: 5
- herbicidal effects on Abutilon theophrasti medicus [3]: 5
- herbicidal effects on Amaranthus viridis L. (Amaranthus viridis L. [4]): 5
- herbicidal effects on Echinochloa crus-galli (L.) P. Beauv. var. crus-galli [5]: 5

Compound: COc1ccc2nc(C(=O)C3=C(O)CCCC3=O)c(=O)n(-c3cc(F)c(OC)c(F)c3)c2c1 [II-255]
- Herbicidal effects index, Echinochloa oryzicola Vasing [6]: 5
- Herbicidal effects index, Monochoria vaginalis (Burm. f.) Presl var. plantaginea (Roxb.) Solms-Laub. [7]: 5
- Herbicidal effects index, Scirpus juncoides Roxb. var. ohwianus. T. Koyama [8]: 5
- herbicidal effects on Abutilon theophrasti medicus [3]: 4
- herbicidal effects on Amaranthus viridis L. (Amaranthus viridis L. [4]): 5
- herbicidal effects on Echinochloa crus-galli (L.) P. Beauv. var. crus-galli [5]: 5

Compound: COc1cccc2nc(C(=O)C3=C(O)CCCC3=O)c(=O)n(-c3ccccc3)c12 [II-256]
- Herbicidal effects index, Echinochloa oryzicola Vasing [6]: 5
- Herbicidal effects index, Monochoria vaginalis (Burm. f.) Presl var. plantaginea (Roxb.) Solms-Laub. [7]: 5
- Herbicidal effects index, Scirpus juncoides Roxb. var. ohwianus. T. Koyama [8]: 5
- herbicidal effects on Abutilon theophrasti medicus [3]: 4
- herbicidal effects on Amaranthus viridis L. (Amaranthus viridis L. [4]): 5
- herbicidal effects on Echinochloa crus-galli (L.) P. Beauv. var. crus-galli [5]: 5

Compound: COc1ccc(-n2c(=O)c(C(=O)C3=C(O)CCCC3=O)nc3cccc(OC)c32)cc1 [II-257]
- Herbicidal effects index, Echinochloa oryzicola Vasing [6]: 5
- Herbicidal effects index, Monochoria vaginalis (Burm. f.) Presl var. plantaginea (Roxb.) Solms-Laub. [7]: 5
- Herbicidal effects index, Scirpus juncoides Roxb. var. ohwianus. T. Koyama [8]: 5
- herbicidal effects on Abutilon theophrasti medicus [3]: 4
- herbicidal effects on Amaranthus viridis L. (Amaranthus viridis L. [4]): 5
- herbicidal effects on Echinochloa crus-galli (L.) P. Beauv. var. crus-galli [5]: 5

Compound: O=C1CCCC(O)=C1C(=O)c1nc2cccnc2n(CCc2ccccc2)c1=O [III-235]
- Herbicidal effects index, Echinochloa oryzicola Vasing [6]: 5
- Herbicidal effects index, Monochoria vaginalis (Burm. f.) Presl var. plantaginea (Roxb.) Solms-Laub. [7]: 5
- Herbicidal effects index, Scirpus juncoides Roxb. var. ohwianus. T. Koyama [8]: 5
- herbicidal effects on Abutilon theophrasti medicus [3]: 5
- herbicidal effects on Amaranthus viridis L. (Amaranthus viridis L. [4]): 5
- herbicidal effects on Echinochloa crus-galli (L.) P. Beauv. var. crus-galli [5]: 5
